Results on two compounds are retold here after ChEMBL document CHEMBL4400537, “Virtual Screening Identifies Irreversible FMS-like Tyrosine Kinase 3 Inhibitors with Activity toward Resistance-Conferring Mutations” (J Med Chem, 2019).

The target of assay [1] is T1, Receptor-type tyrosine-protein kinase FLT3 (Homo sapiens, UniProt P36888). Description: Binding affinity to auto-inhibited form of wild type human N-terminal GST-tagged FLT3 expressed in baculovirus expression.
The target in assay [2] is Mast/stem cell growth factor receptor Kit (Homo sapiens) (UniProt P10721). Description: Inhibition of human N-terminal GST-tagged c-KIT expressed in baculovirus expression system at 100 nM relative to control.
In assay [3] the test system is MV4-11. Description: cells. The following applies: Homo sapiens, MV4-11, 72 h.
Assay [4] concerns the target Tyrosine-protein kinase Lck (Homo sapiens) (UniProt P06239). Nature of the assay: Inhibition of full length human N-terminal 6His-tagged LCK expressed in baculovirus expression system at 100 nM relative to control.
The subject of assay [5] is T2, Receptor-type tyrosine-protein kinase FLT3 (Homo sapiens), P36888 [D835Y].
T2 sequence (whole entry): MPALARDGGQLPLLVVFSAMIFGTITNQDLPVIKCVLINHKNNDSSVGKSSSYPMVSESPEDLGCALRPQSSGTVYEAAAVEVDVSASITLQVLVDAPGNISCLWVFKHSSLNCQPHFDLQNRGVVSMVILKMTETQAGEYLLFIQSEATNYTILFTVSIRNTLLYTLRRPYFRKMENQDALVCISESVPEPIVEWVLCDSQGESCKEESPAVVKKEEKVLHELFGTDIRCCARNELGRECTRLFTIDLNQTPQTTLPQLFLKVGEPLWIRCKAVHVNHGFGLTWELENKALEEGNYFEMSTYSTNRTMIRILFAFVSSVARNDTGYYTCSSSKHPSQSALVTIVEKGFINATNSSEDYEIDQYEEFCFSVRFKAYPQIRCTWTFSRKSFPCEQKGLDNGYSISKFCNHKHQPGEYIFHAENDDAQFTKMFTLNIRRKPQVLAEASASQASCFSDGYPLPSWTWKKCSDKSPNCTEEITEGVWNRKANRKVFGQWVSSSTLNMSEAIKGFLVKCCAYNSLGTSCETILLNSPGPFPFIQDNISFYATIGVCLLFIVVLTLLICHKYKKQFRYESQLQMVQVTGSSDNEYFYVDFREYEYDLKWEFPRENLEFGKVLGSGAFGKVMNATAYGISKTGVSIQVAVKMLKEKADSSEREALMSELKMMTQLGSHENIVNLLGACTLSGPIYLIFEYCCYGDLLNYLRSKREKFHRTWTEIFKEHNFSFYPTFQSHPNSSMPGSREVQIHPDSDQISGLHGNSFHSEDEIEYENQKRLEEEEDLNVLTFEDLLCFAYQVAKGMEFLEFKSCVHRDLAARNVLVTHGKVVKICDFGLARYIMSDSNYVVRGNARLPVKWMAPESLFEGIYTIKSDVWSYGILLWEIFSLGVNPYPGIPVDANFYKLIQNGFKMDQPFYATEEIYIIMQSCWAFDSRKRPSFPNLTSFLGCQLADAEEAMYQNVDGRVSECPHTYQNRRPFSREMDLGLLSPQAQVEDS
Nature of the assay: Inhibition of human FLT3 D835Y mutant expressed in baculovirus expression system at 100 nM relative to control.

Assay [6] addresses Glycogen synthase kinase-3 alpha (Homo sapiens) (UniProt P49840). Nature of the assay: Inhibition of human N-terminal His-tagged GSK3alpha expressed in baculovirus expression system assessed as residual activity at 100 nM relative to control.
Assay [7] addresses Tyrosine-protein kinase receptor UFO (Homo sapiens) (UniProt P30530). Description: Inhibition of full length human N-terminal 6His-tagged AXL expressed in baculovirus expression system at 100 nM relative to control.
The subject of assay [8] is Jurkat. Nature of the assay: cells. The following applies: Homo sapiens, 72 h.
Assay [9] deals with THP-1. Description: cells. The following applies: Homo sapiens, THP-1, 72 h.
The target of assay [10] is Receptor-type tyrosine-protein kinase FLT3 (Homo sapiens) (UniProt P36888). Description: Inhibition of human N-terminal GST-tagged FLT3 expressed in baculovirus expression system at 100 nM relative to control.
Assay [11] has as its system T2, Receptor-type tyrosine-protein kinase FLT3 (Homo sapiens), P36888 [D835Y]. Description: Inhibition of recombinant human FLT3 D835Y mutant (571 to 993 residues) expressed in baculovirus expression system at 100 nM preincubated for 24 hrs in presence of 1000 fold glutathione followed by myelobasic protein addition and measured after 120 mins relative to control.
The test system of assay [12] is MOLM-14. Nature of the assay: cells. The note with it: Homo sapiens, MOLM-14, 72 h.
For assay [13], the target named is Proto-oncogene tyrosine-protein kinase receptor Ret (Homo sapiens) (UniProt P07949). Description: Inhibition of full length human N-terminal GST-tagged RET expressed in baculovirus expression system at 100 nM relative to control.
Proto-oncogene tyrosine-protein kinase receptor Ret (Homo sapiens), sequence (P07949 whole entry): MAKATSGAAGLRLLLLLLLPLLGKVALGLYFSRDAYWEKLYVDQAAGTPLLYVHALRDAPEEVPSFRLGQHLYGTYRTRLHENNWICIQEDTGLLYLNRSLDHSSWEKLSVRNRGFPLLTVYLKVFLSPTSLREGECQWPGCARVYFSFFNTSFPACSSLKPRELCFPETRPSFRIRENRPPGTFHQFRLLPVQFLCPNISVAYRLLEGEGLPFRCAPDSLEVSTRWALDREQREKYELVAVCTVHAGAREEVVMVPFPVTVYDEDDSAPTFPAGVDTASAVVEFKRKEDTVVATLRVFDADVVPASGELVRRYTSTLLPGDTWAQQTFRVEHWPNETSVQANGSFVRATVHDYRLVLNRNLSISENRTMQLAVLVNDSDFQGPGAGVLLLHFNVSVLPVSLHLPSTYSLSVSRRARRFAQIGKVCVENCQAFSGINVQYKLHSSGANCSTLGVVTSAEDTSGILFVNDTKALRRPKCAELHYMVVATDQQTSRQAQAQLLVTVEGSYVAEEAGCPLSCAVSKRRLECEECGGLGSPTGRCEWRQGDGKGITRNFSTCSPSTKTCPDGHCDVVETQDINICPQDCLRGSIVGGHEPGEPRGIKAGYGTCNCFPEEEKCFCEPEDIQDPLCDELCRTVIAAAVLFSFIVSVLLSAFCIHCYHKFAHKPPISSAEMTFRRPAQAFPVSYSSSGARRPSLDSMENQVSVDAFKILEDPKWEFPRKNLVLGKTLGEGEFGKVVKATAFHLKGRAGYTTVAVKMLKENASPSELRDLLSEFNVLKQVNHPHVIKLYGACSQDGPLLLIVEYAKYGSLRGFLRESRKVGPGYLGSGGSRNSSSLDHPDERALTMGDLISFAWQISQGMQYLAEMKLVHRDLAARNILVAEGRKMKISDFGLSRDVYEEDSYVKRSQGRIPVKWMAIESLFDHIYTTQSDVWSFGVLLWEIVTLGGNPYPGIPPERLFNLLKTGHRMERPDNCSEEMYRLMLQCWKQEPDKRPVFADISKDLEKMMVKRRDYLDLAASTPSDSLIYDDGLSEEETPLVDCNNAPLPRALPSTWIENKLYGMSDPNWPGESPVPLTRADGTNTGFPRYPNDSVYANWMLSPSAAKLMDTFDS
The target of assay [14] is Receptor-type tyrosine-protein kinase FLT3 (Homo sapiens, UniProt P36888, D835V/ITD).
Assay [15] concerns the target Receptor-type tyrosine-protein kinase FLT3 (Homo sapiens, UniProt P36888, D835Y). Nature of the assay: Irreversible inhibition of recombinant human FLT3 D835Y mutant (571 to 993 residues) expressed in baculovirus expression system preincubated for 5 to 30 mins followed by myelobasic protein addition measured after 120 mins in presence of ATP by ADP-Glo assay.
Assay [16] deals with Glycogen synthase kinase-3 beta (Homo sapiens) (UniProt P49841). Nature of the assay: Inhibition of human N-terminal His-tagged GSK3beta expressed in baculovirus expression system assessed as residual activity at 100 nM relative to control.
Glycogen synthase kinase-3 beta (Homo sapiens), sequence (P49841 whole entry, looked up, the tested form may be a part): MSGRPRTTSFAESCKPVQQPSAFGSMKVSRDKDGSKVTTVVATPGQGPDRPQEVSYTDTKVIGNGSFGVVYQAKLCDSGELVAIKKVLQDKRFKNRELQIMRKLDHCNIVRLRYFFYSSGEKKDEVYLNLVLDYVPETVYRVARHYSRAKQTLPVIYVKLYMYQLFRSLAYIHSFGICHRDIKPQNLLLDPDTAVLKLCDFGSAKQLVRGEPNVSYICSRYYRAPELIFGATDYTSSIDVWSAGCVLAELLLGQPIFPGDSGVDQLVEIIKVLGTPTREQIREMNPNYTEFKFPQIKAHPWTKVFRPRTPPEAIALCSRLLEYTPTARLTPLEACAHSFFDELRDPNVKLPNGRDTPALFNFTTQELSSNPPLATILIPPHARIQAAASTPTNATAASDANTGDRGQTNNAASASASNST
For assay [17], the target named is Mitogen-activated protein kinase 1 (Homo sapiens) (UniProt P28482). Nature of the assay: Inhibition of human N-terminal GST-tagged ERK2 (14 to 429 residues) expressed in baculovirus expression system assessed as residual activity at 100 nM relative to control.
In assay [18] the target is Mitogen-activated protein kinase 3 (Homo sapiens) (UniProt P27361). Description: Inhibition of full length N-terminal GST-tagged human ERK1 expressed in baculovirus expression system assessed as residual activity at 100 nM relative to control.
Mitogen-activated protein kinase 3 (Homo sapiens), sequence (P27361 whole entry): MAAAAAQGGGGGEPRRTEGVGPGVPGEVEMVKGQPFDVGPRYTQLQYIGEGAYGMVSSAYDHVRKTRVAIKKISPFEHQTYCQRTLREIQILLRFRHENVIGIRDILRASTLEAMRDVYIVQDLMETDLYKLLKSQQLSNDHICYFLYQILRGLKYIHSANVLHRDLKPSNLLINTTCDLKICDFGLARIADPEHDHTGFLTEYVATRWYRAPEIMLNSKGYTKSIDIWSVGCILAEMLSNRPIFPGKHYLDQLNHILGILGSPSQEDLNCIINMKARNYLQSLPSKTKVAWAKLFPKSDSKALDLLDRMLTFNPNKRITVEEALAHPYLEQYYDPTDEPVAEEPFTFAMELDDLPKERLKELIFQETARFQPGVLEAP
For assay [19], the target named is Receptor-type tyrosine-protein kinase FLT3 (Homo sapiens, UniProt P36888, ITD).
Assay [20] has as its target Interleukin-1 receptor-associated kinase 1 (Homo sapiens) (UniProt P51617). Nature of the assay: Inhibition of full length human N-terminal 6His-tagged IRAK1 expressed in baculovirus expression system at 100 nM relative to control.
In assay [21] the test system is T2, Receptor-type tyrosine-protein kinase FLT3 (Homo sapiens), P36888 [D835Y]. Nature of the assay: Inhibition of covalent binding of 100 uM (Z)-N-(2-(2-(4-(2,8-Diethyl-5,5-difluoro-1,3,7,9-tetramethyl-5H-4lambda4,5lambda4-dipyrrolo[1,2-c:2',1'-f ][1,3,2]diazaborinin-10-yl)phenoxy)-acetamido)ethyl)-2,4-dimethyl-5-((2-oxo-5-(vinylsulfon-amido)-indolin-3-ylidene)methyl)-1H-pyrrole-3-carboxamide to recombinant human FLT3 D835Y mutant (571 to 993 residues) expressed in baculovirus expression system at 100 uM by Western blot analysis.

Assay [22] addresses T1, Receptor-type tyrosine-protein kinase FLT3.
Assay [23] addresses Platelet-derived growth factor receptor alpha (Homo sapiens) (UniProt P16234). Description: Inhibition of full length human N-terminal 6His-tagged PDGFRalpha expressed in baculovirus expression system at 100 nM relative to control.
Assay [24] deals with Tyrosine-protein kinase Lyn (Homo sapiens) (UniProt P07948). Description: Inhibition of full length human N-terminal 6His-tagged LYN expressed in baculovirus expression system at 100 nM relative to control.
In assay [25] the test system is T2, Receptor-type tyrosine-protein kinase FLT3 (Homo sapiens), P36888 [D835Y]. Nature of the assay: Inhibition of recombinant human FLT3 D835Y mutant (571 to 993 residues) expressed in baculovirus expression system at 100 nM preincubated for 30 mins in presence of 1000 fold glutathione followed by myelobasic protein addition and measured after 120 mins relative to control.

Assay [26] deals with Platelet-derived growth factor receptor beta (Homo sapiens) (UniProt P09619). Nature of the assay: Inhibition of full length human N-terminal GST-tagged PDGFRbeta expressed in baculovirus expression system at 100 nM relative to control.
Platelet-derived growth factor receptor beta (Homo sapiens), sequence (P09619 whole entry): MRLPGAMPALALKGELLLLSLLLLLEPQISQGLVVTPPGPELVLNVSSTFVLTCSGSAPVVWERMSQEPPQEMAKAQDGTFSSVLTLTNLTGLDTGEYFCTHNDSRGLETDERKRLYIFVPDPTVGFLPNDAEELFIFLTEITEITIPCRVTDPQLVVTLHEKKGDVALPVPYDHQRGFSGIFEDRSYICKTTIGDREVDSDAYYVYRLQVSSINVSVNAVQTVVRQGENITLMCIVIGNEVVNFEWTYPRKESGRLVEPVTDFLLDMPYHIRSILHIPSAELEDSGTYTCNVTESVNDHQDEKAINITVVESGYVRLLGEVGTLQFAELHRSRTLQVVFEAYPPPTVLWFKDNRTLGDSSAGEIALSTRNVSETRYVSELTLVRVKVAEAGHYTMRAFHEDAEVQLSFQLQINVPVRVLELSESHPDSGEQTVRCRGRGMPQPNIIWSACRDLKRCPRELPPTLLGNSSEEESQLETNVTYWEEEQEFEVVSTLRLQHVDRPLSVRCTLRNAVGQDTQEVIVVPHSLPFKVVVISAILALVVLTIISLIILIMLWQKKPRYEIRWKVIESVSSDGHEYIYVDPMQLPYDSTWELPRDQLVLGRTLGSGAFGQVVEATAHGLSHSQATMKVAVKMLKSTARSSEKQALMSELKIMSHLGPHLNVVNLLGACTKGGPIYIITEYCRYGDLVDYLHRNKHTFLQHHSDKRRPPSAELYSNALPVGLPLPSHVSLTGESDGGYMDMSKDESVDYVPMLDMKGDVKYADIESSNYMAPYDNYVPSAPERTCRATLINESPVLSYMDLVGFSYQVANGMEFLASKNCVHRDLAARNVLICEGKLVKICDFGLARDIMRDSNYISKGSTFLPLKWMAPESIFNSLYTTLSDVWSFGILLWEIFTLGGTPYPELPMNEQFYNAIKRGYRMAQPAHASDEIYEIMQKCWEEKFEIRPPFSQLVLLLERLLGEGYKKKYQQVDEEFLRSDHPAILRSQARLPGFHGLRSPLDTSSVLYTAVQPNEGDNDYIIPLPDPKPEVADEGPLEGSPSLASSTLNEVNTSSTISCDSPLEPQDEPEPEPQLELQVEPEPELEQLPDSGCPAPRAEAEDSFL
Assay [27] deals with Receptor-type tyrosine-protein kinase FLT3 (Homo sapiens, UniProt P36888, D835H).
In assay [28] the test system is MV4-11. Description: Cytotoxicity in human MV4-11 cells assessed as induction of cell death at 10 uM incubated for 72 hrs by CellTiter-Blue assay. Format: functional.

The source made the active and inactive calls. No cut-off for these calls is given here.

Platelet-derived growth factor receptor alpha (Homo sapiens), sequence (P16234 whole entry): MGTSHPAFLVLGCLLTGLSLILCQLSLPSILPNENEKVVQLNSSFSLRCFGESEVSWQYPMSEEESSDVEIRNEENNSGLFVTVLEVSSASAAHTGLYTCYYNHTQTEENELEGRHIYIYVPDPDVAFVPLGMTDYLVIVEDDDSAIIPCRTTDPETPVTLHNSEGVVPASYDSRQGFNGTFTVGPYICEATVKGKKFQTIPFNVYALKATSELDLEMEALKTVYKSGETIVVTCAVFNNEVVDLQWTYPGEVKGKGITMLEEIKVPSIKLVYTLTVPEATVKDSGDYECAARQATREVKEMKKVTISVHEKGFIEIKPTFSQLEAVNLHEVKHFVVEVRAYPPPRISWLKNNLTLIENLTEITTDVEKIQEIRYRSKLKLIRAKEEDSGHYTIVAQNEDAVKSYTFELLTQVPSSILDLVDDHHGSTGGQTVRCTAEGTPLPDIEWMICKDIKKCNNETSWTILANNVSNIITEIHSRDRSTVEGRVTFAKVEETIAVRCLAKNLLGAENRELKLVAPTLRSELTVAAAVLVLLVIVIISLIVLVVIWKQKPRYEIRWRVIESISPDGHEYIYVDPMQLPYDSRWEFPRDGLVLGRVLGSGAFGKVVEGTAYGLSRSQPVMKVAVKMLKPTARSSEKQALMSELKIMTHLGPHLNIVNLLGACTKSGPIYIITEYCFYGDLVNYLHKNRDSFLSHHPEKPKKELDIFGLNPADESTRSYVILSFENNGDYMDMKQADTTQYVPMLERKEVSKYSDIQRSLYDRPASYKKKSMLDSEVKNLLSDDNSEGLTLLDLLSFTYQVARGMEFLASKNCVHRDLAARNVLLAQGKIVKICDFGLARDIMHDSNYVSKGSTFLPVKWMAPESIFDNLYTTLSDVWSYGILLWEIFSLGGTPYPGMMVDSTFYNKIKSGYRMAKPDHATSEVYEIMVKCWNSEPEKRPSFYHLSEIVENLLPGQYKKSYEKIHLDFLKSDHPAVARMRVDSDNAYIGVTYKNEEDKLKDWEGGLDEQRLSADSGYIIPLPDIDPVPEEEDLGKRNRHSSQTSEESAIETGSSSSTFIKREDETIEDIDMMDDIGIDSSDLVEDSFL
Interleukin-1 receptor-associated kinase 1 (Homo sapiens), sequence (P51617 whole entry, looked up, the tested form may be a part): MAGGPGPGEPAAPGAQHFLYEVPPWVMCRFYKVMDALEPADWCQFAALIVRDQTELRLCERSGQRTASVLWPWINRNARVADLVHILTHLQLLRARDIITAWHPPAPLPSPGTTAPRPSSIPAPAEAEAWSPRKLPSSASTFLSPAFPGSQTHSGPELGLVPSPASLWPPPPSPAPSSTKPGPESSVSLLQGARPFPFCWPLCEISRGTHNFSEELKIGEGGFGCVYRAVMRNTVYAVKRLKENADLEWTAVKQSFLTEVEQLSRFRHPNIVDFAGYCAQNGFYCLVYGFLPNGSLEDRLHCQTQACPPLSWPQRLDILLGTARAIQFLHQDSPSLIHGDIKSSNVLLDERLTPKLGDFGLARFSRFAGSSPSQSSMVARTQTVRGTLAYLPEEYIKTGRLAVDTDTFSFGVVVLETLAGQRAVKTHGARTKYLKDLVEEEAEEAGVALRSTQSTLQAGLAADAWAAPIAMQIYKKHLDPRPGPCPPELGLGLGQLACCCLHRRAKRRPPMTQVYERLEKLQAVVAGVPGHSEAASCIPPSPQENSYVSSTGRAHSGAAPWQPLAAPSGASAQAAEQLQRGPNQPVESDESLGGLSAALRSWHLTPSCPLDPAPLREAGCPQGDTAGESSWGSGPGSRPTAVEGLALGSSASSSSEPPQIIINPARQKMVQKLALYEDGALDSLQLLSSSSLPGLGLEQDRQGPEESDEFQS

Take `C=CS(=O)(=O)Nc1ccc2c(c1)/C(=C/c1[nH]c(C)c(C(=O)NCCN(CC)CC)c1C)C(=O)N2`: the Kd in assay [1] amounted to 65 nM; in assay [14], 0.83 nM; in assay [19], 5.8 nM; in assay [22], 2.3 nM; in assay [27], 1.3 nM. The inhibition in [2] was 34%; in [4] it was 81 to 93%; in assay [5] it was 99%; in assay [7] it was 81 to 93%; in [10], 95%; in assay [11], 37%. The inhibition was 96% in assay [13]; 81 to 93% in [20]; 28% in [21]; 24% in [23]; 81 to 93% in [24]; 68% in assay [25]. The compound also returned an inhibition in assay [26] of 14%. In addition, the IC50 in assay [3] was 6 nM; in [8], more than 1000 nM; in assay [9], more than 1000 nM; in [12], 7.8 nM. For the same compound, the inhibition result in assay [6], in [16], in assay [17] and in assay [18] was “inactive” throughout. The Ki in [15] was 1.98 nM.

Regarding `Cc1cc(Nc2ccnc(Nc3ccccc3)n2)n[nH]1`, the Activity in assay [28] was 89%. This compound also came in with an IC50 in assay [3] of more than 1 nM.
